In brackets after ≈: the same amount, converted by molar mass.
How the values were obtained:
ABL = ABL (Homo sapiens, UniProt P00519); test: Off-chip mobility-shift kinase assay (Caliper LABCHIP), ABL; details: for ABL AVG % Activity at 1.0E−09: concentration 1.0E−09; for ABL AVG % Activity at 1.0E−10: concentration 1.0E−10; for ABL AVG % Activity at 3.0E−09: concentration 3.0E−09; for ABL AVG % Activity at 3.0E−10: concentration 3.0E−10; for ABL AVG % Activity at 1.0E−06: concentration 1.0E−06; for ABL AVG % Activity at 1.0E−07: concentration 1.0E−07; for ABL AVG % Activity at 1.0E−08: concentration 1.0E−08; for ABL AVG % Activity at 3.0E−06: concentration 3.0E−06; for ABL AVG % Activity at 3.0E−07: concentration 3.0E−07; for ABL AVG % Activity at 3.0E−08: concentration 3.0E−08
Sequence of ABL (P00519 whole entry): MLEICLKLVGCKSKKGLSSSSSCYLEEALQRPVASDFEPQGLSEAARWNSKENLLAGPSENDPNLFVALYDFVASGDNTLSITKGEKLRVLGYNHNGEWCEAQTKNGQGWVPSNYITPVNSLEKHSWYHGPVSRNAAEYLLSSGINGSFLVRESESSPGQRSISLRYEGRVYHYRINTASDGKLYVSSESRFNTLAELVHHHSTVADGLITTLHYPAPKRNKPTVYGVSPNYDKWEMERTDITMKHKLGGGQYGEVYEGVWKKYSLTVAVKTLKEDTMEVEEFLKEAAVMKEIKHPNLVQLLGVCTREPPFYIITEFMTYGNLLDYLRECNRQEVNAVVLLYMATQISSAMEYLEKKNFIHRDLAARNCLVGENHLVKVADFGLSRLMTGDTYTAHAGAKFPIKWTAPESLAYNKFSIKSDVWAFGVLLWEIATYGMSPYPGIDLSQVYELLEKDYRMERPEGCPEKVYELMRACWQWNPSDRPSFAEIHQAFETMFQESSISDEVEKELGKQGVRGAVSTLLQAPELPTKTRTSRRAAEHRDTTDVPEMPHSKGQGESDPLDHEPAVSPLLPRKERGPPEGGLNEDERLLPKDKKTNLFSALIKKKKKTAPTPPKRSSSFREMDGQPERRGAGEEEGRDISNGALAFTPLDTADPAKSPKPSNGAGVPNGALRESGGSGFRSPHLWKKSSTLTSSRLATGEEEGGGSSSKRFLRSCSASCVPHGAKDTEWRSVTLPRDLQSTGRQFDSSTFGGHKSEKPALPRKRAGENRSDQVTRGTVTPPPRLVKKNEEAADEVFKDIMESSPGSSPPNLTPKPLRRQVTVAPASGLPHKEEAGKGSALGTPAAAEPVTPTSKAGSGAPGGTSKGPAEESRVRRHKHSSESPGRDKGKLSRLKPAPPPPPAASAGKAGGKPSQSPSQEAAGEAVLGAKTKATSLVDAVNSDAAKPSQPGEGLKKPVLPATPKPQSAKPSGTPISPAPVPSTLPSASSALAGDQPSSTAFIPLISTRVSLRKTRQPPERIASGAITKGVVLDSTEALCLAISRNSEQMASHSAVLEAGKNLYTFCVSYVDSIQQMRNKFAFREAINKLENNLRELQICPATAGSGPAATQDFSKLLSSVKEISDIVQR

Thermodynamic solubility = format: physicochemical; details: aqueous buffer, thermodynamic from solid; phosphate buffered saline, pH 7.4; ambient temperature overnight
Procedure: Test compound (2.5 mg of solid; n=1) is weighed in a clear glass vial and buffer (0.5 mL) is added (phosphate buffered saline, pH 7.4). The solution is agitated at ambient temperature overnight using a vial roller system. […] Duplicate aliquots (50 μL) are sampled from the filtrate and diluted with one volume of 0.1 N hydrochloric acid and methanol (1:1 v/v) before analysis by HPLC-UV. […] The concentration of test compound in the filtrate is quantified relative to the concentration standard.
Analysis is performed using a gradient HPLC-UV system with a total cycle time of six minutes.

[1] = Caco-2 permeability (bi-directional; pH 7.4/pH 7.4); format: in vitro ADME; details: human; for Papp A→B at 120 min, 10 μM: Caco-2, pH 7.4, read-out: Permeability (cm^2/s × 10^6); for efflux ratio at 120 min, 10 μM: Caco-2, ratio of B-A and A-B permeabilities
Procedure: Caco-2 cells are used as an in vitro model of the human intestinal epithelium and permit assessment of the intestinal permeability of potential drugs. Test compound is added to either the apical or basolateral side of a confluent monolayer of Caco-2 cells and permeability is measured by monitoring the appearance of the test compound on the opposite side of the membrane using LC-MS/MS. Apparent permeability (Papp) coefficients, efflux ratio for the test compound and recovery values were determined.
To measure the permeability of test compound in the apical to basolateral (A-B) and basolateral to apical (B-A) direction across Caco-2 cells.
Caco-2 cells obtained from the ATCC are used between passage numbers 40-60. Cells are seeded on to Millipore Multiscreen Caco-2 plates at 1×10^5 cells/cm^2. They are cultured for 20 days in DMEM and media is changed every two or three days. On day 20 the permeability study is performed.
On day 20, the monolayers are prepared by rinsing both basolateral and apical surfaces twice with HBSS at 37° C. Cells are then incubated with HBSS in both apical and basolateral compartments for 40 min to stabilize physiological parameters. HBSS is then removed from the apical compartment and replaced with test compound dosing solutions. […] The fluorescent integrity marker lucifer yellow is also included in the dosing solution. Analytical standards are made from dosing solutions. The apical compartment inserts are then placed into ‘companion’ plates containing fresh HBSS. For basolateral to apical (B-A) permeability determination the experiment is initiated by replacing buffer in the inserts then placing them in companion plates containing dosing solutions. At 120 minutes the companion plate is removed and apical and basolateral samples diluted for analysis by LC-MS/MS. Test compound permeability was assessed in duplicate. On each plate, compounds of known permeability characteristics were run as controls.
Test and control compounds were quantified by LC-MS/MS cassette analysis using a 5-point calibration with appropriate dilution of the samples. Cyprotex generic analytical conditions were used. The starting concentration (C0) and experimental recovery were calculated from both apical and basolateral compartment concentrations.
The integrity of the monolayers throughout the experiment was checked by monitoring lucifer yellow permeation using fluorimetric analysis. Lucifer yellow permeation is low if monolayers have not been damaged. […] If lucifer yellow Papp values are above QC limits in both replicate wells for a test compound, the compound was re-tested.
Data Analysis: The permeability coefficient for each compound (Papp) is calculated from the following equation: […]
wherein dQ/dt is the rate of permeation of the drug across the cells, C0 is the donor compartment concentration at time zero and A is the area of the cell monolayer. C0 is obtained from analysis of donor and receiver compartments at the end of the incubation period. It is assumed that all of the test compound measured after 120 minutes incubation was initially present in the donor compartment at 0 minutes. An efflux ratio (ER) is derived as follows:
Talinolol (a known P-gp substrate) is also included as a control compound to assess whether functional P-gp is present in the Caco-2 cell monolayer.

PDGFRβ = PDGFRβ (Homo sapiens, UniProt P09619); test: Off-chip mobility-shift kinase assay (Caliper LABCHIP), PDGFR; details: for PDGFR AVG % Activity at 1.0E−06: concentration 1.0E−06; for PDGFR AVG % Activity at 1.0E−07: concentration 1.0E−07; for PDGFR AVG % Activity at 1.0E−08: concentration 1.0E−08; for PDGFR AVG % Activity at 1.0E−09: concentration 1.0E−09; for PDGFR AVG % Activity at 1.0E−10: concentration 1.0E−10; for PDGFR AVG % Activity at 3.0E−06: concentration 3.0E−06; for PDGFR AVG % Activity at 3.0E−07: concentration 3.0E−07; for PDGFR AVG % Activity at 3.0E−08: concentration 3.0E−08; for PDGFR AVG % Activity at 3.0E−09: concentration 3.0E−09; for PDGFR AVG % Activity at 3.0E−10: concentration 3.0E−10
Sequence of PDGFRβ (P09619 33-1106): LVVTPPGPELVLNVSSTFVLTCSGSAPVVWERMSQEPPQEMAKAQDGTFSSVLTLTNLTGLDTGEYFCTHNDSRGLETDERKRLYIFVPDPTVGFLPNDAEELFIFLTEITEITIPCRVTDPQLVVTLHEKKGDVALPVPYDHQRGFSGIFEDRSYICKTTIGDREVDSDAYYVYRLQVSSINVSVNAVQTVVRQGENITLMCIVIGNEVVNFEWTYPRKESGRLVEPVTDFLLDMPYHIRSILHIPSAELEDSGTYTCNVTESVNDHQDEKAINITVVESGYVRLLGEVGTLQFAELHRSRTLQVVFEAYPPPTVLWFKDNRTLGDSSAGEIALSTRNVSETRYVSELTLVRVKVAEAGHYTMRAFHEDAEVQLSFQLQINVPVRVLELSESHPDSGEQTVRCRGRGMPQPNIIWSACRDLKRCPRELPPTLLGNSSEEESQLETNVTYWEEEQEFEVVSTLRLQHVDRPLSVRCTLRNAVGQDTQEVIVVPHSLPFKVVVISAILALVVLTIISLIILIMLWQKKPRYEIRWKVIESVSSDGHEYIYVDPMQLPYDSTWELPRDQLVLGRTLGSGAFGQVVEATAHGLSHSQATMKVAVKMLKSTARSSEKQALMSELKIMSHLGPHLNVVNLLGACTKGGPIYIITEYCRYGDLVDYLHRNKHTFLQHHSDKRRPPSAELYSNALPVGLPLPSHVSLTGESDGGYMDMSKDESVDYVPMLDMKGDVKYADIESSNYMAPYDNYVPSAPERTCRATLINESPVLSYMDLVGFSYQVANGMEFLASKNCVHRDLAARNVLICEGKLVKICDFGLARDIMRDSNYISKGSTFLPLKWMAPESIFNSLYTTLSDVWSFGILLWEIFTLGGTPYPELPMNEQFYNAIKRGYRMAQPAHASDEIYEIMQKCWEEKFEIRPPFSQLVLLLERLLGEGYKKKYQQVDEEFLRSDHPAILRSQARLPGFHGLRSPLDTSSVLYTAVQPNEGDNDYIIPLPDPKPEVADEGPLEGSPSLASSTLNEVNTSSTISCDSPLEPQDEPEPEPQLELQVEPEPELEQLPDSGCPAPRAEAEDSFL

cKIT = cKIT (Homo sapiens, UniProt P10721); test: Off-chip mobility-shift kinase assay (Caliper LABCHIP), C-kit; details: for C-kit AVG % Activity at 1.0E−05: concentration 1.0E−05; for C-kit AVG % Activity at 1.0E−06: concentration 1.0E−06; for C-kit AVG % Activity at 1.0E−07: concentration 1.0E−07; for C-kit AVG % Activity at 1.0E−08: concentration 1.0E−08; for C-kit AVG % Activity at 3.0E−05: concentration 3.0E−05; for C-kit AVG % Activity at 3.0E−06: concentration 3.0E−06; for C-kit AVG % Activity at 3.0E−07: concentration 3.0E−07; for C-kit AVG % Activity at 3.0E−08: concentration 3.0E−08; for C-kit AVG % Activity at 3.0E−09: concentration 3.0E−09
Sequence of cKIT (P10721 26-976): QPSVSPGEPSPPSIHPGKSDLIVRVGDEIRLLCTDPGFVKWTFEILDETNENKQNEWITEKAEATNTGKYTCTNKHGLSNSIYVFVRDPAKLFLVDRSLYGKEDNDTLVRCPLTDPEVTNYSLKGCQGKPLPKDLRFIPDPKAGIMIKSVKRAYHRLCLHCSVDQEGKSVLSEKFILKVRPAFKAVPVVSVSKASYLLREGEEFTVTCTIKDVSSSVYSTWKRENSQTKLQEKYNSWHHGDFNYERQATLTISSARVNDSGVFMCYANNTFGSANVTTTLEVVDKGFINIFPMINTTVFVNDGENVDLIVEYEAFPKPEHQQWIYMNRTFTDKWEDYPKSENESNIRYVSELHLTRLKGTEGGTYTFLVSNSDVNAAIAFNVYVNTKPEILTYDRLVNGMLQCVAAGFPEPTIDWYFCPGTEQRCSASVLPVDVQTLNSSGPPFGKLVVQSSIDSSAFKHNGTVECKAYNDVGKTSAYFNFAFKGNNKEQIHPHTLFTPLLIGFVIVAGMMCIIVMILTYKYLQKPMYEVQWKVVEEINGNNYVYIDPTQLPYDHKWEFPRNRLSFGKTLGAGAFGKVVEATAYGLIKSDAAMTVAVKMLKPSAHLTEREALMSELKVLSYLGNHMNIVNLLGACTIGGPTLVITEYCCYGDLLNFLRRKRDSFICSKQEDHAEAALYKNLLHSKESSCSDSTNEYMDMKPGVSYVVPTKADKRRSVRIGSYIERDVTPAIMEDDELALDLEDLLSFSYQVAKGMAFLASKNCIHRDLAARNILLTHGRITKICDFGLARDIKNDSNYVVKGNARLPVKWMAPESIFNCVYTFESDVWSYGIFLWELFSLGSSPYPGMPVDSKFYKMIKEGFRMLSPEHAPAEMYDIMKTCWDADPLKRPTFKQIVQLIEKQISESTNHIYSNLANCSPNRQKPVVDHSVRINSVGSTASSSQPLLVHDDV

[2] = dasatinib-corresponding compounds
[3] = imatinib-corresponding compounds

| IC50 (ABL) | solubility (Thermodynamic solubility) | Papp A→B at 120 min, 10 μM [1] | IC50 (PDGFRβ) | PDGFR AVG % Activity at 1.0E−06 (PDGFRβ) | PDGFR AVG % Activity at 1.0E−07 (PDGFRβ) | PDGFR AVG % Activity at 1.0E−08 (PDGFRβ) | PDGFR AVG % Activity at 1.0E−09 (PDGFRβ) | PDGFR AVG % Activity at 1.0E−10 (PDGFRβ) | PDGFR AVG % Activity at 3.0E−06 (PDGFRβ) | PDGFR AVG % Activity at 3.0E−07 (PDGFRβ) | PDGFR AVG % Activity at 3.0E−08 (PDGFRβ) | PDGFR AVG % Activity at 3.0E−09 (PDGFRβ) | PDGFR AVG % Activity at 3.0E−10 (PDGFRβ) | efflux ratio at 120 min, 10 μM [1] | IC50 (cKIT) | C-kit AVG % Activity at 1.0E−05 (cKIT) | C-kit AVG % Activity at 1.0E−06 (cKIT) | C-kit AVG % Activity at 1.0E−07 (cKIT) | C-kit AVG % Activity at 1.0E−08 (cKIT) | Structure (SMILES) | also measured |
| --- | --- | --- | --- | --- | --- | --- | --- | --- | --- | --- | --- | --- | --- | --- | --- | --- | --- | --- | --- | --- | --- |
| 0.37 nM |  |  |  |  |  |  |  |  |  |  |  |  |  |  |  |  |  |  |  | COCCOCCOCCOCC(=O)NC(C(=O)OCCN1CCN(c2cc(Nc3ncc(C(=O)Nc4c(C)cccc4Cl)s3)nc(C)n2)CC1)C(C)C (stereo not drawn) [mPEG3-Val-Dasatinib] | ABL AVG % Activity at 1.0E−09 (ABL; [2]): 10%; ABL AVG % Activity at 1.0E−10 (ABL; [2]): 85%; ABL AVG % Activity at 1.0E−11 (ABL; concentration 1.0E−11, dasatinib-corresponding compounds): 98%; ABL AVG % Activity at 3.0E−09 (ABL; [2]): 0%; ABL AVG % Activity at 3.0E−10 (ABL; [2]): 54%; ABL AVG % Activity at 3.0E−11 (ABL; concentration 3.0E−11, dasatinib-corresponding compounds): 95% |
|  | 3300 µg/mL (≈ 4.62 mM) | 1 ± 0.2 ×10⁻⁶ cm/s |  |  |  |  |  |  |  |  |  |  |  |  |  |  |  |  |  | COCCOCCOCCOCCOCCN1CCN(Cc2ccc(C(=O)Nc3ccc(C)c(Nc4nccc(-c5cccnc5)n4)c3)cc2)CC1 [mPEG5-N′-Imatinib] |  |
| ≥ 3000 nM | 3400 µg/mL (≈ 5.27 mM) | 0.05 ± 0.02 ×10⁻⁶ cm/s | 220 nM | 9% | 62% | 94% | 90% | 92% | 0% | 37% | 85% | 100% | 92% | 560 | 440 nM | 1% | 28% | 82% | 92% | COCCOCCOCCOCCOCCNCc1ccc(C(=O)Nc2ccc(C)c(Nc3nccc(-c4cccnc4)n3)c2)cc1 [mPEG5-N-Imatinib] | C-kit AVG % Activity at 3.0E−05 (cKIT): 0%; C-kit AVG % Activity at 3.0E−06 (cKIT): 9%; C-kit AVG % Activity at 3.0E−07 (cKIT): 59%; C-kit AVG % Activity at 3.0E−08 (cKIT): 91%; C-kit AVG % Activity at 3.0E−09 (cKIT): 96%; ABL AVG % Activity at 1.0E−06 (ABL; [3]): 74%; ABL AVG % Activity at 1.0E−07 (ABL; [3]): 86%; ABL AVG % Activity at 1.0E−08 (ABL; [3]): 95%; ABL AVG % Activity at 1.0E−09 (ABL; [3]): 97%; ABL AVG % Activity at 1.0E−10 (ABL; [3]): 96%; ABL AVG % Activity at 3.0E−06 (ABL; [3]): 66%; ABL AVG % Activity at 3.0E−07 (ABL; [3]): 80%; ABL AVG % Activity at 3.0E−08 (ABL; [3]): 92%; ABL AVG % Activity at 3.0E−09 (ABL; [3]): 96%; ABL AVG % Activity at 3.0E−10 (ABL; [3]): 96% |
|  | 3300 µg/mL (≈ 5.93 mM) | 0.6 ± 0.07 ×10⁻⁶ cm/s |  |  |  |  |  |  |  |  |  |  |  |  |  |  |  |  |  | COCCOCCOCCNCc1ccc(C(=O)Nc2ccc(C)c(Nc3nccc(-c4cccnc4)n3)c2)cc1 [mPEG3-N-Imatinib] |  |
| ≥ 3000 nM | 2700 µg/mL (≈ 3.29 mM) | 0.01 ± 0.004 ×10⁻⁶ cm/s | 290 nM | 11% | 65% | 83% | 78% | 89% | 0% | 38% | 75% | 100% | 86% | 482 | 1600 nM | 9% | 62% | 93% | 98% | COCCOCCOCCOCCOCCOCCOCCOCCOCCNCc1ccc(C(=O)Nc2ccc(C)c(Nc3nccc(-c4cccnc4)n3)c2)cc1 [mPEG9-N-Imatinib] | C-kit AVG % Activity at 3.0E−05 (cKIT): 2%; C-kit AVG % Activity at 3.0E−06 (cKIT): 32%; C-kit AVG % Activity at 3.0E−07 (cKIT): 81%; C-kit AVG % Activity at 3.0E−08 (cKIT): 99%; C-kit AVG % Activity at 3.0E−09 (cKIT): 99%; ABL AVG % Activity at 1.0E−06 (ABL; [3]): 77%; ABL AVG % Activity at 1.0E−07 (ABL; [3]): 89%; ABL AVG % Activity at 1.0E−08 (ABL; [3]): 97%; ABL AVG % Activity at 1.0E−09 (ABL; [3]): 96%; ABL AVG % Activity at 1.0E−10 (ABL; [3]): 96%; ABL AVG % Activity at 3.0E−06 (ABL; [3]): 70%; ABL AVG % Activity at 3.0E−07 (ABL; [3]): 85%; ABL AVG % Activity at 3.0E−08 (ABL; [3]): 93%; ABL AVG % Activity at 3.0E−09 (ABL; [3]): 96%; ABL AVG % Activity at 3.0E−10 (ABL; [3]): 96% |

Source: patent publication US20120094998A1, “Oligomer-Protein Tyrosine Kinase Inhibitor Conjugates” (Nektar Therapeutics, priority 2009, published 2012)
